Values of other authors, collected in US20070197530A1, “Amido compounds and their use as pharmaceuticals” (priority 2006, published 2007).

Columns and labels:
healthy volunteers = settings: after seven days of carbenoxolone treatment
[1] = test system: pancreatic islet cells of ob/ob mice
[2] = test system: primary hippocampal cells

CC1(C)[C@@H](OC(=O)CCC(=O)O)CC[C@]2(C)[C@H]3C(=O)C=C4[C@@H]5C[C@@](C)(C(=O)O)CC[C@]5(C)CC[C@@]4(C)[C@]3(C)CC[C@@H]12 [carbenoxolone]
IOP reduced by (healthy volunteers): 18%
glucose-stimulated insulin release [1]: improves glucose-stimulated insulin release
protection from glucocorticoid-mediated exacerbation of excitatory amino acid neurotoxicity [2]: protects the cells from glucocorticoid-mediated exacerbation of excitatory amino acid neurotoxicity
negative effects of glucocorticoids on bone nodule formation (bone nodule formation): attenuate the negative effects of glucocorticoids on bone nodule formation
